Where two headings read alike, the source gives them in different places.
Assays:
[1] = system: Puccinia triticina; assay: Wheat Brown Rust (PUCCRT) fungicidal activity; format: in vivo; conditions: for pest or weed control at 121.5 g/ha: Low Volume (121.5 g/H); for pest or weed control at 100 µg/mL: High Volume (100 ppm)
Procedure: Technical grades of materials were dissolved in acetone, which were then mixed with nine volumes of H2O containing 110 ppm Triton X-100. The fungicide solutions were applied onto wheat seedlings using an automated booth sprayer to run-off. All sprayed plants were allowed to air dry prior to further handling. All fungicides were evaluated using the aforementioned method for their activity vs. all target diseases, unless stated otherwise. Wheat leaf blotch and brown rust activity were also evaluated using track spray applications, in which case the fungicides were formulated as EC formulations, containing 0.1% Trycol 5941 in the spray solutions. Wheat plants (variety Yuma) were grown from seed in a greenhouse in 50% mineral soil/50% soil-less Metro mix until the first leaf was fully emerged, with 7-10 seedlings per pot. These plants were inoculated with an aqueous spore suspension of Puccinia triticina either prior to or after fungicide treatments. After inoculation the plants were kept in a dark dew room at 22° C. with 100% relative humidity overnight to permit spores to germinate and infect the leaf. The plants were then transferred to a greenhouse set at 24° C. for disease to develop. Fungicide formulation, application and disease assessment followed the procedures as described in the Example A.

[2] = system: Zymoseptoria tritici; assay: Leaf Blotch of Wheat (SEPTTR) fungicidal activity; format: in vivo; conditions: for pest or weed control at 121.5 g/ha: Low Volume (121.5 g/H); for pest or weed control at 100 µg/mL: High Volume (100 ppm)
Procedure: Technical grades of materials were dissolved in acetone, which were then mixed with nine volumes of H2O containing 110 ppm Triton X-100. The fungicide solutions were applied onto wheat seedlings using an automated booth sprayer to run-off. All sprayed plants were allowed to air dry prior to further handling. All fungicides were evaluated using the aforementioned method for their activity vs. all target diseases, unless stated otherwise. Wheat leaf blotch and brown rust activity were also evaluated using track spray applications, in which case the fungicides were formulated as EC formulations, containing 0.1% Trycol 5941 in the spray solutions. Wheat plants (variety Yuma) were grown from seed in a greenhouse in 50% mineral soil/50% soil-less Metro mix until the first leaf was fully emerged, with 7-10 seedlings per pot. These plants were inoculated with an aqueous spore suspension of Zymoseptoria tritici either prior to or after fungicide treatments. After inoculation the plants were kept in 100% relative humidity (one day in a dark dew chamber followed by two to three days in a lighted dew chamber at 20° C.) to permit spores to germinate and infect the leaf. The plants were then transferred to a greenhouse set at 20° C. for disease to develop. When disease symptoms were fully expressed on the 1st leaves of untreated plants, infection levels were assessed on a scale of 0 to 100 percent disease severity. Percent disease control was calculated using the ratio of disease severity on treated plants relative to untreated plants.

[3] = 24 h, 1 Day Protectant, read-out: PUCCRT 1DP disease control
[4] = 72 h, 3 Day Curative, read-out: PUCCRT 3DC disease control
[5] = 24 h, 1 Day Protectant, read-out: SEPTTR 1DP disease control
[6] = 72 h, 3 Day Curative, read-out: SEPTTR 3DC disease control

| Structure (SMILES) | pest or weed control at 121.5 g/ha [1, 3] [%] | pest or weed control at 121.5 g/ha [1, 4] [%] | pest or weed control at 121.5 g/ha [2, 5] [%] | pest or weed control at 121.5 g/ha [2, 6] [%] | pest or weed control at 100 µg/mL [1, 3] [%] | pest or weed control at 100 µg/mL [1, 4] [%] | pest or weed control at 100 µg/mL [2, 5] [%] | pest or weed control at 100 µg/mL [2, 6] [%] |
| --- | --- | --- | --- | --- | --- | --- | --- | --- |
| COc1ccnc(C(=O)N[C@H]2COCC[C@H](Cc3ccc(F)cc3)[C@@H](Oc3ccccc3)[C@H](C)OC2=O)c1OCOC(C)=O [Compound 72] | > 80 | > 80 | > 80 | > 80 | – | – | – | – |
| COc1ccnc(C(=O)N[C@H]2COCCC[C@@H](CCC(C)C)[C@H](C)OC2=O)c1O [Compound 112] | – | – | – | – | < 80 | < 80 | < 80 | < 80 |
| COc1ccnc(C(=O)N[C@H]2CCCC[C@H](CC3CCCC3)[C@@H](OC)[C@H](C)OC2=O)c1OC(C)=O [Compound 59] | > 80 | > 80 | < 80 | – | – | – | – | – |
| COc1ccnc(C(=O)N[C@H]2CCOC[C@H](OCC(C)C)[C@@H](OCC(C)C)[C@H](C)OC2=O)c1OCOC(C)=O [Compound 43] | > 80 | < 80 | – | – | – | – | – | – |
| COc1ccnc(C(=O)N[C@H]2CCCC[C@H](Oc3ccccc3)[C@@H](OC3CCCC3)[C@H](C)OC2=O)c1OCOC(C)=O [Compound 36] | > 80 | > 80 | < 80 | < 80 | – | – | – | – |
| COc1ccnc(C(=O)N[C@H]2CCCC[C@H](Cc3ccccc3)[C@@H](OCC(C)C)[C@H](C)OC2=O)c1OCOC(C)=O [Compound 24] | > 80 | < 80 | > 80 | > 80 | – | – | – | – |
| CCCO[C@@H]1[C@@H](CC2CCCC2)CCCC[C@H](NC(=O)c2nccc(OC)c2OC(C)=O)C(=O)O[C@H]1C [Compound 58] | > 80 | < 80 | < 80 | < 80 | – | – | – | – |
| COc1ccnc(C(=O)N[C@H]2CCOC[C@H](Oc3ccccc3)[C@@H](OCC(C)C)[C@H](C)OC2=O)c1OCOC(C)=O [Compound 46] | > 80 | < 80 | > 80 | < 80 | – | – | – | – |
| CCOCC(=O)OCOc1c(OC)ccnc1C(=O)N[C@H]1CCCC[C@H](CC2CCCC2)[C@@H](OC(=O)C(C)C)[C@H](C)OC1=O [Compound 55] | > 80 | < 80 | < 80 | < 80 | – | – | – | – |
| COc1ccnc(C(=O)N[C@H]2CCCC[C@@H]3OC(C)(C)O[C@H]3[C@H](C)OC2=O)c1OC(C)=O [Compound 29] | > 80 | > 80 | < 80 | > 80 | – | – | – | – |
| COc1ccnc(C(=O)N[C@H]2CCCC[C@H](Cc3ccccc3)[C@@H](Oc3ccccc3)[C@H](C)OC2=O)c1OCOC(C)=O [Compound 62] | > 80 | < 80 | > 80 | > 80 | – | – | – | – |
| COc1ccnc(C(=O)N[C@H]2COCC[C@H](Cc3ccccc3)[C@@H](OCC(C)C)[C@H](C)OC2=O)c1OC(C)=O [Compound 21] | > 80 | > 80 | < 80 | > 80 | – | – | – | – |
| COc1ccnc(C(=O)N[C@H]2CCCC[C@H](CC3CCCC3)[C@@H](OC)[C@H](C)OC2=O)c1OCOC(C)=O [Compound 61] | > 80 | > 80 | < 80 | < 80 | – | – | – | – |
| COc1ccnc(C(=O)N[C@H]2CCOC[C@H](OC(=O)C(C)C)[C@@H](Oc3ccccc3)[C@H](C)OC2=O)c1OCOC(C)=O [Compound 44] | > 80 | > 80 | < 80 | < 80 | – | – | – | – |
| COc1ccnc(C(=O)N[C@H]2CCCC[C@H](Cc3ccccc3)[C@@H](Oc3ccccc3)[C@H](C)OC2=O)c1OC(C)=O [Compound 64] | > 80 | < 80 | > 80 | > 80 | – | – | – | – |
| COc1ccnc(C(=O)N[C@H]2CCOC[C@H](OCC(C)C)[C@@H](Oc3ccccc3)[C@H](C)OC2=O)c1OCOC(C)=O [Compound 45] | > 80 | > 80 | > 80 | > 80 | – | – | – | – |
| CCCOC(=O)O[C@H]1CCCC[C@H](NC(=O)c2nccc(OC)c2OCOC(C)=O)C(=O)O[C@@H](C)[C@@H]1OCC(C)C [Compound 38] | > 80 | < 80 | > 80 | > 80 | – | – | – | – |
| COc1ccnc(C(=O)N[C@H]2COCC[C@H](Cc3ccc(F)cc3)[C@@H](Oc3ccccc3)[C@H](C)OC2=O)c1OCOC(=O)C(C)C [Compound 73] | > 80 | > 80 | > 80 | > 80 | – | – | – | – |
| COc1ccnc(C(=O)N[C@H]2CCCC[C@H](OC)[C@@H](OC3CCCC3)[C@H](C)OC2=O)c1OCOC(C)=O [Compound 34] | > 80 | > 80 | < 80 | > 80 | – | – | – | – |
| COc1ccnc(C(=O)N[C@H]2CCOC[C@H](OC)[C@@H](Oc3ccccc3)[C@H](C)OC2=O)c1OC(C)=O [Compound 48] | > 80 | > 80 | > 80 | > 80 | – | – | – | – |
| COc1ccnc(C(=O)N[C@H]2CCCC[C@H](CC3CCCC3)[C@@H](Oc3ccccc3)[C@H](C)OC2=O)c1OC(C)=O [Compound 52] | > 80 | < 80 | > 80 | – | – | – | – | – |
| COc1ccnc(C(=O)N[C@H]2CCCC[C@H](Oc3ccccc3)[C@@H](Oc3ccccc3)[C@H](C)OC2=O)c1OCOC(C)=O [Compound 19] | > 80 | > 80 | > 80 | > 80 | – | – | – | – |
| COc1ccc(C[C@H]2CCOC[C@H](NC(=O)c3nccc(OC)c3OC(C)=O)C(=O)O[C@@H](C)[C@@H]2Oc2ccccc2)cc1 [Compound 65] | > 80 | < 80 | > 80 | < 80 | – | – | – | – |
| COc1ccnc(C(=O)N[C@H]2CCCC[C@H](OCC(C)C)[C@@H](Oc3ccccc3)[C@H](C)OC2=O)c1OCOC(C)=O [Compound 13] | > 80 | > 80 | > 80 | > 80 | – | – | – | – |
| COc1ccnc(C(=O)N[C@H]2CCCC[C@H](Oc3ccccc3)[C@@H](Oc3ccccc3)[C@H](C)OC2=O)c1OC(C)=O [Compound 25] | > 80 | < 80 | > 80 | < 80 | – | – | – | – |
| COc1ccnc(C(=O)N[C@H]2CCCC[C@H](OCc3ccccc3)[C@@H](OCc3ccccc3)[C@H](C)OC2=O)c1OCOC(C)=O [Compound 8] | > 80 | > 80 | > 80 | > 80 | – | – | – | – |
| CC[C@H]1CCOC[C@H](NC(=O)c2nccc(OC)c2OCOC(C)=O)C(=O)O[C@@H](C)[C@@H]1Oc1ccccc1 [Compound 69] | > 80 | > 80 | > 80 | > 80 | – | – | – | – |
| COc1ccnc(C(=O)N[C@H]2CCCC[C@H](OC3CCCC3)[C@@H](OC)[C@H](C)OC2=O)c1OCOC(C)=O [Compound 35] | > 80 | < 80 | – | – | – | – | – | – |
